Laboratory results as given in US9789110B2, “Diacylglycerol acyltransferase 2 inhibitors” (PFIZER INC., priority 2014, dated 2017).
Read-outs that look alike come from different tables or passages of the source.

Legend:
[1] = target: DGAT2 in primary human hepatocytes (Homo sapiens (Human), UniProt Q96PD7); test: IC50 for DGAT2 inhibitors in human hepatocytes, [14C]-glycerol incorporation into lipids; format: cell-based
Description: For evaluation of the effects of DGAT2 inhibitors in a cell-based setting, cryopreserved human hepatocytes (Lot QOC and NON, Celsis, Chicago, Ill.) were thawed and plated onto type I collagen-coated plates according to the manufacturer's instructions. After 24 hours overnight recovery period, the cells were overlayed with media containing 250 μg/ml Matrigel (BD Biosciences, San Jose, Calif.). The following day, media was aspirated and replaced with serum-free Williams Media E (Life Technologies, Grand Island, N.Y.) containing 400 μM sodium dodecanoate (Sigma-Aldrich, St. Louis, Mo.). Forty minutes later, DGAT2 inhibitors (prepared as 100× stocks in 25% DMSO, 75% Williams' Media E) were added to the desired final concentration. […] After a 20 minute preincubation, 0.2 μCi [1,3-^14C]-glycerol glycerol (American Radio Chemicals, St. Louis, Mo.) was added to each well and mixed by gentle pipetting prior to a 3 hour incubation. At this point, media was aspirated and the cells were lysed in isopropyl alcohol: tetrahydrofuran (9:1) prior to centrifugation at 3000 rpm for 5 minutes. Radiolabeled lipids were resolved using a 2-solvent system by thin layer chromatography using standard technique (solvent 1 contained ethyl acetate:isopropyl alcohol:chloroform:methanol:0.25% potassium chloride in water (100:100:100:40.2:36.1, v/v/v/v) and solvent 2 contained hexane: diethyl ether: acetic acid (70:27:3, v/v/v)). After separation, radiolabeled lipids were visualized using a Molecular Dynamics' PhosphorImager system. The half maximal inhibitory concentrations (IC50 values) were determined using GraphPad Prism (GraphPad Software, Inc., La Jolla, Calif.).
Table 4 below provides IC50 values for the Examples in accordance with the above-described assay. Results were reported as average IC50 values, low and high IC50 range (95% confidence interval).

hDGAT2 = hDGAT2 (Homo sapiens (Human), UniProt Q96PD7); test: In vitro DGAT2 assay, hDGAT2 membrane fraction, [14C]decanoyl-CoA scintillation readout; format: biochemical; conditions: geometric mean; FLAG-hDGAT2 membrane fraction; 2 h preincubation; read-out: IC50 for inhibition of DGAT2
Sequence of hDGAT2 (Q96PD7 whole entry): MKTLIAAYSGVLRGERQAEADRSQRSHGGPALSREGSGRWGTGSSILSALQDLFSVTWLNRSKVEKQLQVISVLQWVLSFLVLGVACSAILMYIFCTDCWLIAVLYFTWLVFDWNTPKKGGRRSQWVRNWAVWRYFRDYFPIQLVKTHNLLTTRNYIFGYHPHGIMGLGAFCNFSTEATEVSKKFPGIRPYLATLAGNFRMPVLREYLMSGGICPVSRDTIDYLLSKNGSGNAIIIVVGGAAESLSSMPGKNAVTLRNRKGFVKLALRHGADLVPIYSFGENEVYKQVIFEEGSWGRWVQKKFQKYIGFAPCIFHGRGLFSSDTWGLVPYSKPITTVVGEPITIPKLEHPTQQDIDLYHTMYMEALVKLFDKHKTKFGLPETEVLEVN
Description: Recombinant baculovirus for the FLAG-tagged hDGAT2 was generated in SF9 insect cells using Bac-to-Bac baculovirus expression system (Invitrogen) according to the manufacturer's protocol. For the expression of hDGAT2, SF9 cells (20 L) grown in Sf90011 media were infected with hDGAT2 baculovirus at a multiplicity of infection of 1 in a Wave Bioreactor System 20/50P wave bag (GE Healthcare). After 40 hours of infection, the cells were then harvested by centrifugation at 5,000×g. The cell pellets were washed by resuspending in phosphate buffered saline (PBS) and collected by centrifugation at 5,000×g. The cell paste was flash frozen in liquid N2 and stored at −80° C. until needed. All operations below were at 4° C. unless otherwise noted. The cells were resuspended in lysis buffer (50 mM Tris-HCl, pH 8.0, 250 mM sucrose) including 1 mM ethylenediaminetetraacetic acid (EDTA) and the complete protease inhibitor cocktail (Roche Diagnostics) at a ratio of 3 ml buffer per 1 g cell paste. The cells were lysed by dounce homogenizer. The cell debris was removed by centrifugation at 1,000×g for 20 min, and the supernatant was centrifuged at 100,000×g for 1 hour. The resulting pellet was rinsed three times by filling ultracentrifuge tubes to the top with ice cold PBS before decanting. The washed pellet was resuspended with gentle stirring for 1 hour in lysis buffer containing 8 mM 3-[(3-cholamidopropyl)dimethylammonio]-1-propanesulfonate (CHAPS) at a ratio of 1 mL buffer per 1 g of original cell paste and centrifuged again at 100,000×g for 1 hour. The resulting supernatant was aliquotted, flash frozen in liquid N2, and stored at −80° C. until use.
For determination of IC50 values, the reactions were carried out in 384-well white Polyplates (Perkin Elmer) in a total volume of 20 μL. To […] compounds dissolved in 100% DMSO and spotted at the bottom of each well, 5 μL of 0.04% bovine serum albumin (BSA) (fatty acid free, Sigma Aldrich) was added and the mixture was incubated at room temperature for 20 minutes. To this mixture, 10 μL of hDGAT2 membrane fraction (0.01 mg/mL) diluted in 100 mM Hepes-NaOH, pH 7.4, 20 mM MgCl2 containing 200 nM methyl arachidonyl fluorophosphonate (Cayman Chemical; dried from ethyl acetate stock solution under argon gas and dissolved in DMSO as 5 mM stock) was added. After this mixture was preincubated at room temperature for 2 hours, DGAT2 reactions were initiated by the addition of 4 μL of substrates containing 30 μM [1-^14C]decanoyl-CoA (custom-synthesized by Perkin Elmer, 50 mCi/mmol) and 125 μM 1,2-didecanoyl-sn-glycerol (Avanti Polar Lipids) dissolved in 12.5% acetone. The reaction mixtures were incubated at room temperature for 40 min and the reactions were stopped by addition of 5 μL of 1% H3PO4. After the addition of 45 μL MicroScint-E (Perkin-Elmer), plates were sealed with Top Seal-A covers (Perkin-Elmer) and phase partitioning of substrates and products was achieved using a HT-91100 microplate orbital shaker (Big Bear Automation, Santa Clara, Calif.). Plates were centrifuged at 2,000×g for 1 min in an Allegra 6R Centrifuge (Beckman Coulter) and then were sealed again with fresh covers before reading in a 1450 Microbeta Wallac Trilux Scintillation Counter (Perkin Elmer). DGAT2 activity was measured by quantifying the generated product [^14C]tridecanoylglycerol in the upper organic phase.
Inhibitors were tested at eleven different concentrations to generate IC50 values for each compound.

[2] = average, cryopreserved human hepatocytes, selective DGAT1 inhibitor 3 μM in all wells, 3 hour incubation, read-out: IC50 in primary human hepatocytes

Sequence of DGAT2 in primary human hepatocytes (Q96PD7 whole entry): as above

IC50 [1, 2]	IC50 (hDGAT2)	SMILES	IC50 [1]
0.0104 µM	0.0873 µM	CCOc1ccccc1O[C@@H]1CCCN(c2ncc(C(=O)NCc3cc(C(=O)O)ccc3F)cn2)C1 [Example 10, (R)-3-((2-(3-(2-ethoxyphenoxy)piperidin-1-yl)pyrimidine-5-carboxamido)methyl)-4-fluorobenzoic acid]	–
0.0816 µM	0.068 µM	CCOc1ccccc1O[C@@H]1CCCN(c2ncc(C(=O)NCc3nc(=O)[nH][nH]3)cn2)C1 [Example 20.5, (R)-2-(3-(2-ethoxyphenoxy)piperidin-1-yl)-N-((5-oxo-2,5-dihydro-1H-1,2,4-triazol-3-yl)methyl)pyrimidine-5-carboxamide]	–
0.0578 µM	0.222 µM	CCOc1ccccc1O[C@@H]1CCCN(c2ncc(C(=O)N[C@H]3CCC[C@H]3C(=O)O)cn2)C1 [Example 6, (1R,2S)-2-(2-((R)-3-(2-ethoxyphenoxy)piperidin-1-yl)pyrimidine-5-carboxamido)cyclopentane-1-carboxylic acid]	–
0.0788 µM	0.0024 µM	CCOc1ccccc1O[C@@H]1CCCN(c2ncc(C(=O)NCc3ccc(C(C)C(=O)O)cc3)cn2)C1 (single isomer, unassigned) [Example 15]	–
0.0378 µM	0.0293 µM	CCOc1ccccc1O[C@@H]1CCCN(c2ncc(C(=O)NCCc3cn[nH]c3O)cn2)C1 [Example 20.8, (R)-2-(3-(2-ethoxyphenoxy)piperidin-1-yl)-N-(2-(5-hydroxy-1H-pyrazol-4-yl)ethyl)pyrimidine-5-carboxamide]	–
0.057 µM	0.0381 µM	CCOc1ccccc1O[C@@H]1CCCN(c2ncc(C(=O)NCc3cc(C(=O)O)ccc3C)cn2)C1 [Example 9, (R)-3-((2-(3-(2-ethoxyphenoxy)piperidin-1-yl)pyrimidine-5-carboxamido)methyl)-4-methylbenzoic acid]	–
0.0112 µM	0.0916 µM	CCOc1ccccc1O[C@@H]1CCCN(c2ncc(C(=O)NCc3cccc(C(=O)O)c3)cn2)C1 [Example 1, (R)-3-((2-(3-(2-ethoxyphenoxy)piperidin-1-yl)pyrimidine-5-carboxamido)methyl)benzoic acid]	–
0.0598 µM	0.17 µM	CCOc1ccccc1O[C@@H]1CCCN(c2ncc(C(=O)N3CC[C@H]3C(N)=O)cn2)C1 [Example 20.10, (S)-1-(2-((R)-3-(2-ethoxyphenoxy)piperidin-1-yl)pyrimidine-5-carbonyl)azetidine-2-carboxamide]	–
0.499 µM	0.182 µM	CCOc1ccccc1O[C@@H]1CCCN(c2ncc(C(=O)NCc3ccccc3CC(=O)O)cn2)C1 [Example 18.3, (R)-2-(2-((2-(3-(2-ethoxyphenoxy)piperidin-1-yl)pyrimidine-5-carboxamido)methyl)phenyl)acetic acid]	–
0.0517 µM	0.0097 µM	CCOc1ccccc1O[C@@H]1CCCN(c2ncc(C(=O)NCc3ccnc(C(=O)O)c3)cc2F)C1 [Example 8, (R)-4-((6-(3-(2-ethoxyphenoxy)piperidin-1-yl)-5-fluoronicotinamido)methyl)picolinic acid]	–
0.0066 µM	0.035 µM	CCNC(=O)c1cnc(N2CCC[C@@H](Oc3ccccc3OCC)C2)nc1 [Example 4, (R)-2-(3-(2-ethoxyphenoxy)piperidin-1-yl)-N-ethylpyrimidine-5-carboxamide]	–
0.0068 µM	0.122 µM	CCOc1ccccc1O[C@@H]1CCCN(c2ncc(C(=O)NCc3cc(C(=O)O)ccc3OC)cn2)C1 [Example 11, (R)-3-((2-(3-(2-ethoxyphenoxy)piperidin-1-yl)pyrimidine-5-carboxamido)methyl)-4-methoxybenzoic acid]	–
0.045 µM	0.0477 µM	CCOc1ccccc1O[C@@H]1CCCN(c2ncc(C(=O)NCc3cc(C)cc(C(=O)O)c3)cn2)C1 [Example 16, (R)-3-((2-(3-(2-ethoxyphenoxy)piperidin-1-yl)pyrimidine-5-carboxamido)methyl)-5-methylbenzoic acid]	–
0.116 µM	0.165 µM	CCOc1ccccc1O[C@@H]1CCCN(c2ncc(C(=O)NCc3ccc(C(=O)O)cc3)cn2)C1 [Example 18.1, (R)-4-((2-(3-(2-ethoxyphenoxy)piperidin-1-yl)pyrimidine-5-carboxamido)methyl)benzoic acid]	–
0.0207 µM	0.0452 µM	CCOc1ccccc1O[C@@H]1CCCN(c2ncc(C(=O)NCc3ccc(C(=O)O)cc3C)cn2)C1 [Example 13, (R)-4-((2-(3-(2-ethoxyphenoxy)piperidin-1-yl)pyrimidine-5-carboxamido)methyl)-3-methylbenzoic acid]	–
0.0192 µM	0.149 µM	CCOc1ccccc1O[C@@H]1CCCN(c2ccc(C(=O)NCc3cccc(C(=O)O)c3)cn2)C1 [Example 7, (R)-3-((6-(3-(2-ethoxyphenoxy)piperidin-1-yl)nicotinamido)methyl)benzoic acid]	–
0.0675 µM	0.0623 µM	CCOc1ccccc1O[C@@H]1CCCN(c2ncc(C(=O)NCc3cc(C(=O)O)cnc3C)cn2)C1 [Example 12, (R)-5-((2-(3-(2-ethoxyphenoxy)piperidin-1-yl)pyrimidine-5-carboxamido)methyl)-6-methylnicotinic acid]	–
0.0292 µM	0.0884 µM	CCOc1ccccc1O[C@@H]1CCCN(c2ncc(C(=O)N[C@H](C)c3cccc(C(=O)O)c3)cn2)C1 [Example 3, 3-((R)-1-(2-((R)-3-(2-ethoxyphenoxy)piperidin-1-yl)pyrimidine-5-carboxamido)ethyl)benzoic acid]	–
–	0.0324 µM	CCOc1ccccc1O[C@@H]1CCCN(c2ncc(C(=O)NCCn3cncn3)cn2)C1 [Example 19.10, (R)-N-(2-(1H-1,2,4-triazol-1-yl)ethyl)-2-(3-(2-ethoxyphenoxy)piperidin-1-yl)pyrimidine-5-carboxamide]	–
–	0.0112 µM	CCOc1ccccc1O[C@@H]1CCCN(c2ncc(C(=O)NCc3cocn3)cn2)C1 [Example 19.15, (R)-2-(3-(2-ethoxyphenoxy)piperidin-1-yl)-N-(oxazol-4-ylmethyl)pyrimidine-5-carboxamide]	–

SMILES	IC50 [1, 2]	IC50 (hDGAT2)	IC50 [1]
CCOc1ccccc1O[C@@H]1CCCN(c2ncc(C(=O)NCc3cc(O)no3)cn2)C1 [Example 19.2, (R)-2-(3-(2-ethoxyphenoxy)piperidin-1-yl)-N-((3-hydroxyisoxazol-5-yl)methyl)pyrimidine-5-carboxamide]	–	0.262 µM	0.341 µM
